The target of experiment [1] is T1, von Hippel-Lindau disease tumor suppressor/Interleukin-1 receptor-associated kinase 4 (Homo sapiens, UniProt Q9NWZ3+P40337). Put plainly: PROTAC activity at VHL E3 ligase/IRAK4 in human PBMC cells assessed as induction of degradation of IRAK4 incubated overnight by ELISA method. It is filed as cell-based.
The target in experiment [2] is T1, von Hippel-Lindau disease tumor suppressor/Interleukin-1 receptor-associated kinase 4. The experiment is described as follows: PROTAC activity at VHL E3 ligase/IRAK4 in human PBMC cells assessed as induction of degradation of IRAK4 incubated overnight by ELISA method relative to control. It is filed as cell-based.
Target sequence in this assay (P40337 whole entry, looked up): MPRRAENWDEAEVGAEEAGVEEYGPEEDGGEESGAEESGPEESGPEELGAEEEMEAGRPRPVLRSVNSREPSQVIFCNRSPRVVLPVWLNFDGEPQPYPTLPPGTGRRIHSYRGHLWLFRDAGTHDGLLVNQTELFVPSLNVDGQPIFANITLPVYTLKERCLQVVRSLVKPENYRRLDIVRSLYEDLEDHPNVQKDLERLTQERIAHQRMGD
Target sequence in this assay (Q9NWZ3 whole entry, looked up): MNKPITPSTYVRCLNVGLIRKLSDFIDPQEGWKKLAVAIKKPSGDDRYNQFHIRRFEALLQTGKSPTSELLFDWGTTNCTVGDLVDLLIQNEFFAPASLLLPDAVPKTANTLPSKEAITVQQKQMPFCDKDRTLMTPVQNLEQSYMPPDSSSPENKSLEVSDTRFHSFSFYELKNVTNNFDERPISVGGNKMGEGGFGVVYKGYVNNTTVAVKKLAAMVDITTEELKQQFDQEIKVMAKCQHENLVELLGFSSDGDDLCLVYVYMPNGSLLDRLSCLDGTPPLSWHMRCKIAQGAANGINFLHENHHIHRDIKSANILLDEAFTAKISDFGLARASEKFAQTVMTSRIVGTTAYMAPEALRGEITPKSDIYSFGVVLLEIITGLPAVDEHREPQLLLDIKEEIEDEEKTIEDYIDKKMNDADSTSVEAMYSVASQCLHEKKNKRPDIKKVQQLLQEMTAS

Among the data in ChEMBL document CHEMBL5634192, “Transforming Therapeutic Approaches with PROTAC Technology: New Targets and Potentials” (ACS Med Chem Lett, 2024) are DC50, EC90 and Emax values, retold here.

On to `CC(C)Oc1cc2c(cc1NC(=O)c1cnn3cccnc13)CN(C1CCN(CC3CCN(c4ccc(C5CCC(=O)NC5=O)cn4)CC3)CC1)C2=O` (centres undefined), for which, in experiment [1], the DC50 is below 1 nM and the 90% effect concentration (EC90) was below 10 nM. Further, the maximum response (Emax) in experiment [2] is above 90%.
`O=C1CCC(c2ccc(N3CCC4(CCC(CN5CCC(n6cc7cc(NC(=O)c8cnn9cccnc89)c(OCC8CC8)cc7n6)CC5)CC4)CC3)cc2F)C(=O)N1` (centres undefined): in experiment [1], the half-maximal degradation concentration (DC50) was below 1 nM and the EC90 was below 10 nM. Moreover, the Emax in experiment [2] is above 90%.
Taken in the same sequence, the figures for `CC(C)Oc1cc2c(cc1NC(=O)c1cnn3cccnc13)CN(C1CCN(CC3CCN(c4ccc(C5CCC(=O)NC5=O)c(F)c4)CC3)CC1)C2=O` (centres undefined) were below 1 nM, below 10 nM and above 90%.
As to `O=C1CCC(c2ccc(N3CC(F)(CN4CCC(n5cc6cc(NC(=O)c7cnn8cccnc78)c(N7CCC(N8CCC8)CC7)cc6n5)CC4)C3)cc2F)C(=O)N1` (centres undefined), in experiment [1], the DC50 was below 1 nM and the EC90 was below 10 nM. Further, the maximal effect (Emax) in experiment [2] was above 90%.
In the same order, the values of `CC(C)Oc1nc2c(cc1NC(=O)c1cnn3cccnc13)CN(C1CCN(CC3CCN(c4ccc(C5CCC(=O)NC5=O)c(F)c4)CC3)CC1)C2=O` (centres undefined) are below 1 nM, below 10 nM and above 90%.
As for `O=C1CCC(c2ccc(N3CCC4(CC3)CC(CN3CCC(n5cc6cc(NC(=O)c7cnn8cccnc78)c(OCC7CC7)cc6n5)CC3)C4)cc2F)C(=O)N1` (centres undefined), in experiment [1], the DC50 came out at 1 nM and the concentration for an effect of 90% (EC90) was below 10 nM. For the same compound, the Emax in experiment [2] is above 90%.
Taken in the same sequence, the figures for `CC(C)Oc1cc2c(cc1NC(=O)c1cnn3cccnc13)CN(C1CCN(CC3CCN(c4ccc(C5CCC(=O)NC5=O)cc4)CC3)CC1)C2=O` (centres undefined) were 1 nM, below 10 nM and above 90%.
Taken in the same sequence, the figures for `O=C1CCC(c2ccc(N3CC(F)(CN4CCC(n5cc6cc(NC(=O)c7cnn8cccnc78)c(OCC7CC7)cc6n5)CC4)C3)cc2F)C(=O)N1` (centres undefined) were below 1 nM, below 10 nM and above 90%.
